Laboratory results taken from patent publication US20160251403A1, “PEPTIDE COMBINATIONS AND USES THEREOF IN TREATING DUST MITE ALLERGY” (ALK-ABELLO A/S, priority 2013, published 2016).
Positions count from the first letter of the chain named. No end group written: not given here.

Assays:
DPA10103-DPB10401 = biological target: T1, DPA10103-DPB10401 (Homo sapiens, UniProt P04440+P20036); assay: Competitive MHC class II binding assay, DPA10103-DPB10401
T1 sequence (P20036 29-260): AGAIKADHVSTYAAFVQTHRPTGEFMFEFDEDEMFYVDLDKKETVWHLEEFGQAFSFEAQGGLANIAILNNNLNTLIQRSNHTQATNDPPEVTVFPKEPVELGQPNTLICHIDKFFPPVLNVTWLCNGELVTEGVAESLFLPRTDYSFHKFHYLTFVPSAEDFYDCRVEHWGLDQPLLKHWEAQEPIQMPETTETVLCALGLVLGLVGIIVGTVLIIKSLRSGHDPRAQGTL
T1 sequence (P04440 30-258): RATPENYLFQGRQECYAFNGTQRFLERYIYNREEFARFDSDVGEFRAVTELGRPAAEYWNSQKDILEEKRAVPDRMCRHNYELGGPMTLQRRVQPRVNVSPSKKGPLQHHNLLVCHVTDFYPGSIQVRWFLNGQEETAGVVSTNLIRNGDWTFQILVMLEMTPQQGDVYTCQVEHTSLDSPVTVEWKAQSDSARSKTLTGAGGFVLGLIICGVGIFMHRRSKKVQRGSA

DPA10103-DPB10201 = biological target: T2, DPA10103-DPB10201 (Homo sapiens, UniProt P04440+P20036, A65V/A84D/A85E/K98E); assay: Competitive MHC class II binding assay, DPA10103-DPB10201
T2 sequence (P20036 29-260): T1 sequence (P20036 29-260)
T2 sequence (P04440 30-258 A65V/A84D/A85E/K98E): T1 sequence (P04440 30-258) with A36V, A55D, A56E, K69E

DRB1_1302 = DRB1_1302 (Homo sapiens, UniProt P01903+P01911, A100E/A169T/K41T/L162R/M171V/P40S/Q125H/Q178H/Q39Y/Q99D/R42S/S66N/T262R/V115G/W38E/Y61H); assay: Competitive MHC class II binding assay, DRB1_1302;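 further: purified HLA class II protein incubated two to four days with a radiolabeled reference binder and test peptide at six concentrations over a 100,000-fold range, complex-bound radioactivity counted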
DRB1_1201 = DRB1_1201 (Homo sapiens, UniProt P01903+P01911, A100R/A169T/D57E/D86V/F55L/H45Y/K41T/L162R/M171V/P40S/Q125H/Q178H/Q39Y/Q99D/R42G/S66L/T262R/V114A/V67L/W38E/Y59H/Y61H/Y89S); assay: Competitive MHC class II binding assay, DRB1_1201
DQA10501-DQB10301 = DQA10501-DQB10301 (Homo sapiens, UniProt P01909+P01920); assay: Competitive MHC class II binding assay, DQA10501-DQB10301
DRB3_0202 = DRB3_0202 (Homo sapiens, UniProt P01903+P79483, A212P/D57E/F66Y/L67A/R103Q/R218S/R40L/S89Y/T80R/V86D/Y55F/Y59H); assay: Competitive MHC class II binding assay, DRB3_0202
DRB1_0901 = DRB1_0901 (Homo sapiens, UniProt P01903+P01911, A100R/A103E/D57H/D86V/F55Y/F60I/F76Y/I96F/K127E/L162R/M171V/P40D/Q125H/Q99R/R33Q/R42F/S133A/S66N/T210M/V115G/W38K/Y107V/Y59G/Y89S); assay: Competitive MHC class II binding assay, DRB1_0901;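 further: displacement of a radiolabeled probe peptide from purified HLA class II protein, bound counts read after two to four days incubation, six concentrations spanning 100,000-fold, unlabeled probe as reference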
DQA10102-DQB10602 = assay: Competitive MHC class II binding assay, DQA10102-DQB10602; conditions: read-out: HLA-DQA10102-DQB10602; positive binding at cutoff 1000 nM
DRB1_1501 = DRB1_1501 (Homo sapiens, UniProt P01903+P01911); assay: Competitive MHC class II binding assay, DRB1_1501
DQA10501-DQB10201 = DQA10501-DQB10201 (Homo sapiens, UniProt P01909+P01920, A45G/A70V/D89A/E106A/E77G/E98D/H199R/L107V/N214S/P84L/P87L/T103K/T109R/T172A/T60S/V78E/V99I/Y58L/Y62S/Y69I/Y79F); assay: Competitive MHC class II binding assay, DQA10501-DQB10201
DRB1_0405 = DRB1_0405 (Homo sapiens, UniProt P01903+P01911, A100R/A169T/D86S/F76Y/I96L/K127E/L162R/M171V/N62H/P40V/Q125Y/R42H/S133A/S149N/S66Y/V115G/V209L/W38E); assay: Competitive MHC class II binding assay, DRB1_0405
DRB1_0802 = DRB1_0802 (Homo sapiens, UniProt P01903+P01911, A100R/A103L/A169T/F76Y/H45Y/I96F/K41T/L162R/M171V/P40S/Q125H/Q178H/Q39Y/Q99D/R218S/R42G/S66Y/V115G/W38E); assay: Competitive MHC class II binding assay, DRB1_0802
DRB4_0101 = DRB4_0101 (Homo sapiens, UniProt P01903+P13762, G164S); assay: Competitive MHC class II binding assay, DRB4_0101
DRB5_0101 = DRB5_0101 (Homo sapiens, UniProt P01903+Q30154); assay: Competitive MHC class II binding assay, DRB5_0101
DRB1_0101 = DRB1_0101 (Homo sapiens, UniProt P01903+P01911, A100R/D57E/F55L/F60I/F76Y/I96L/L162R/M171V/P40L/Q125E/R42F/V115G/Y59C); assay: Competitive MHC class II binding assay, DRB1_0101;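 further: competition against a radiolabeled probe peptide (0.1–1 nM) for purified HLA class II protein over 2–4 days, bound counts read after antibody capture, six competitor levels across 100,000-fold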
DRB1_1101 = DRB1_1101 (Homo sapiens, UniProt P01903+P01911, A100R/A169T/A87E/I96F/K41T/L162R/M171V/P40S/Q125H/Q178H/Q39Y/Q99D/R42S/S66Y/T262R/V115G/W38E); assay: Competitive MHC class II binding assay, DRB1_1101
DRB1_0701 = DRB1_0701 (Homo sapiens, UniProt P01903+P01911, A100R/A102G/A103Q/D57E/D86V/E43K/F76Y/K127E/L162R/M171V/P40G/Q125H/Q99D/R33Q/R42Y/R54Q/S133A/S66F/T210M/V115G/Y107V/Y59L/Y89S); assay: Competitive MHC class II binding assay, DRB1_0701;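 further: displacement of a radiolabeled reference peptide from purified HLA class II protein, with complex-bound radioactivity counted after 2–4 days of incubation and six concentrations spanning a 100,000-fold range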
DRB1_0401 = DRB1_0401 (Homo sapiens, UniProt P01903+P01911, A100K/A169T/F76Y/I96L/K127E/L162R/M171V/N62H/P40V/Q125Y/R42H/S133A/S149N/S66Y/V115G/V209L/W38E); assay: Competitive MHC class II binding assay, DRB1_0401
DQA10101-DQB10501 = DQA10101-DQB10501 (Homo sapiens, UniProt P01909+P01920, A157S/A45G/A70V/C70R/D89V/E106S/E118A/E183D/E77G/F83G/G63E/H151Q/H199R/H252R/H253Q/I129T/I235V/I88M/INS77G/K197Q/L107V/L117V/L119Y/L178F/L71W/L74F/L85Q/L91A/L98M/M46L/N214S/P87R/Q116E/Q256R/Q57E/Q76K/R102G/R240Q/R75S/R78G/S102Y/S185I/S41F/S97I/T103A/T109R/T121G/T122I/T172A/T86R/V148I/V68A/V73E/Y34C/Y58G/Y62H); assay: Competitive MHC class II binding assay, DQA10101-DQB10501; conditions: positive binding at cutoff 1000 nM; read-out: HLA-DQA10101-DQB10501
DPA10103-DPB10402 = biological target: T3, DPA10103-DPB10402 (Homo sapiens, UniProt P04440+P20036, A65V/A84D/A85E/L207M); assay: Competitive MHC class II binding assay, DPA10103-DPB10402
T3 sequence (P20036 29-260): T1 sequence (P20036 29-260)
T3 sequence (P04440 30-258 A65V/A84D/A85E): T1 sequence (P04440 30-258) with A36V, A55D, A56E

DQA10401-DQB10402 = assay: Competitive MHC class II binding assay, DQA10401-DQB10402
DRB3_0101 = DRB3_0101 (Homo sapiens, UniProt P01903+P79483); assay: Competitive MHC class II binding assay, DRB3_0101
DQA10301-DQB10302 = DQA10301-DQB10302 (Homo sapiens, UniProt P01909+P01920, A209T/A45G/C70Q/D89A/DUP78-78/E183D/E77G/F237L/G63E/H199R/I129T/K197E/L178F/L74F/L98V/Q57E/Q76R/S185I/S97I/T217I/T49S/V73L/Y58L); assay: Competitive MHC class II binding assay, DQA10301-DQB10302

| IC50 (DRB1_1302) [nM] | IC50 (DQA10501-DQB10301) [nM] | IC50 (DRB3_0202) [nM] | IC50 (DRB1_0901) [nM] | IC50 (DQA10501-DQB10201) [nM] | IC50 (DRB1_0405) [nM] | IC50 (DRB4_0101) [nM] | IC50 (DRB1_0101) [nM] | IC50 (DRB1_0701) [nM] | Molecule | IC50 (DPA10103-DPB10401) [nM] | IC50 (DPA10103-DPB10201) [nM] | further results |
| --- | --- | --- | --- | --- | --- | --- | --- | --- | --- | --- | --- | --- |
|  |  |  |  |  |  |  |  |  | CC[C@H](C)[C@H](NC(=O)[C@H](CCSC)NC(=O)[C@H](CCCNC(=N)N)NC(=O)[C@H](Cc1ccccc1)NC(=O)[C@H](CCCCN)NC(=O)[C@@H](NC(=O)[C@H](CCSC)NC(=O)[C@H](CC(N)=O)NC(=O)[C@H](Cc1ccc(O)cc1)NC(=O)[C@@H](NC(=O)[C@@H](N)CCC(=O)O)[C@@H](C)CC)C(C)C)C(=O)N[C@@H](C)C(=O)NCC(=O)N[C@@H](CCC(N)=O)C(=O)N[C@@H](CCC(=O)O)C(=O)O [pep-117] | < 1000 | < 1000 |  |
| < 1000 | < 1000 | < 1000 | < 1000 | < 1000 | < 1000 | < 1000 | < 1000 | < 1000 | CC[C@H](C)[C@H](NC(=O)CNC(=O)[C@@H](N)CCCNC(=N)N)C(=O)N[C@@H](CCC(=O)O)C(=O)N[C@@H](Cc1ccc(O)cc1)C(=O)N[C@H](C(=O)N[C@@H](CCC(N)=O)C(=O)N[C@@H](Cc1c[nH]cn1)C(=O)N[C@@H](CC(N)=O)C(=O)NCC(=O)N[C@H](C(=O)N[C@H](C(=O)N[C@@H](CCC(N)=O)C(=O)N[C@@H](CCC(=O)O)C(=O)N[C@@H](CO)C(=O)N[C@@H](Cc1ccc(O)cc1)C(=O)N[C@@H](Cc1ccc(O)cc1)C(=O)N[C@@H](CCCNC(=N)N)C(=O)N[C@@H](Cc1ccc(O)cc1)C(=O)N[C@H](C(=O)N[C@@H](C)C(=O)N[C@@H](CCCNC(=N)N)C(=O)O)C(C)C)C(C)C)C(C)C)[C@@H](C)CC [pep-123] | < 1000 | < 1000 | IC50 (DRB1_1201): < 1000 nM; IC50 (DQA10102-DQB10602): < 1000 nM; IC50 (DRB1_1501): < 1000 nM; IC50 (DRB1_0802): < 1000 nM; IC50 (DRB5_0101): < 1000 nM; IC50 (DRB1_1101): < 1000 nM |
| < 1000 | < 1000 | < 1000 | < 1000 | < 1000 | < 1000 | < 1000 | < 1000 | < 1000 | NGYGYFAANIDLMM [pep-011] |  |  | binding to HLA Class II allele DRB1_1302 (DRB1_1302; as shown in Table 16a): binds to at least the same alleles as peptide 041; binding to HLA Class II allele DRB3_0202 (DRB3_0202; as shown in Table 16a): binds to at least the same alleles as peptide 041; IC50 (DRB1_0401): < 1000 nM; IC50 (DQA10101-DQB10501): < 1000 nM; binding to HLA Class II allele DQA10501-DQB10201 (DQA10501-DQB10201; as shown in Table 16a): binds to at least the same alleles as peptide 041; IC50 (DPA10103-DPB10402): < 1000 nM; binding to HLA Class II allele DQA10401-DQB10402 (DQA10401-DQB10402; as shown in Table 16a): binds to at least the same alleles as peptide 041; IC50 (DQA10401-DQB10402; read-out: HLA-DQA10401-DQB10402, positive binding at cutoff 1000 nM): < 1000 nM; IC50 (DRB3_0101): < 1000 nM; binding to HLA Class II allele DRB3_0101 (DRB3_0101; as shown in Table 16a): binds to at least the same alleles as peptide 041; IC50 (DQA10301-DQB10302): < 1000 nM |
